Source: publication PMC13091788 (NPJ Aging, 2026)
Structures can show the parent of a compound that is named as a salt.

Assays:
[1] = PAMPA assay; format: in vitro ADME; details: read-out: permeability of reference compounds
Procedure: To determine the passive membrane diffusion rates, Corning Gentest Pre-coated PAMPA Plate System was used. The acceptor plate was prepared by adding 200 μL of 0.1 M phosphate buffer (pH 4.5–8.6) supplemented with 5% DMSO to each well, and then 300 μL of 30 μM compounds in 0.1 M phosphate buffer (pH 4.5–8.6) with 5% DMSO were added to the donor wells. The acceptor plate was then placed on top of the donor plate and incubated at 37 °C for 4 h without agitation. After the incubation, the plates were separated and the solutions from each well of both the acceptor plate and the donor plate were transferred to 96-well plates and mixed with acetonitrile. The final concentrations of compounds in both donor and acceptor wells, as well as the concentrations of the initial donor solutions, were analyzed using liquid chromatography-tandem mass spectrometry (LC-MS/MS). The permeability of the compounds was calculated as described in a previous study. […] Two technical replicates were performed.

[2] = test system: rodents; details: high doses (up to 100 mg/kg/day), intraperitoneal or oral gavage; cited from earlier work
[3] = test system: MITOL and mitochondrial proteins in C2C12 myoblasts; assay: Western blot of mitochondrial proteins in C2C12 myoblasts; format: cell-based, mouse; details: 48 h
Procedure: (§1) Murine myoblast C2C12 cells were used for various cellular experiments in this study. Two different sources of C2C12 cells were used depending on the experiment: C2C12 cells obtained from RIKEN BRC (RCB0987) were used for gene expression, mtDNA quantification, and mitochondrial morphology analysis; C2C12 cells from ATCC (CRL-1772) were used for OCR analysis. Cells were cultured in Dulbecco’s Modified Eagle Medium (DMEM; Sigma-Aldrich or Nacalai Tesque), supplemented with 10% FBS and 1% penicillin–streptomycin. Cells were maintained in a humidified incubator at 37°C with 5% CO2.
(§2) For cellular experiments, berberine or quinoid-type berberrubine (Q-BRB) was dissolved in DMSO, and berberrubine acetic acid adduct (AcA-BRB) was dissolved in distilled H2O. Each compound was diluted in culture medium to the indicated final concentrations.
Proteins in sample buffer were separated by SDS-PAGE and transferred to Immobilon-P PVDF membranes (IPVH00010, Millipore). Blots were probed with the indicated antibodies, and protein bands on the blot were visualized using Chemi-Lumi One L (07880-70, Nacalai Tesque) or Immobilon Western Chemiluminescent HRP Substrate (WBKLS0500, Millipore). Band images were captured using a LuminoGraph I imager (WSE-6100, ATTO). Relative band intensities were quantified using Fiji/ImageJ software. Unprocessed western blot images corresponding to the data presented in the main and supplementary figures are provided in Supplementary Figures 11–16.

[4] = test system: MITOL and Tom20 mRNA in C2C12 cells; assay: qRT-PCR analysis of C2C12 cells; format: cell-based, mouse; details: C2C12, 5 μM or 10 μM
Procedure: as §1, §2
Total RNA was extracted from C2C12 cells using an RNA extraction kit (RNeasy Mini Kit, Qiagen). After washing with PBS, cells were collected by trypsinization and centrifugation at 500 × g for 5 min, and the pellet was lysed according to the manufacturer’s instructions. The extracted RNA was reverse-transcribed into cDNA using a reverse transcription kit (ReverTra Ace, TOYOBO). Quantitative real-time PCR was performed using a qPCR master mix (KAPA SYBR FAST qPCR Master Mix (2X) Kit, KAPABIOSYSTEMS) and a thermal cycler (StepOnePlus, Applied Biosystems). Gene expression levels were normalized to GAPDH. Primer sets used for qRT-PCR are listed in Supplementary Table 1.

[5] = test system: C2C12 cells; assay: Quantification of mitochondrial DNA (mtDNA/nDNA ratio); format: cell-based, mouse; details: C2C12, 10 μM
Procedure: as §1
To generate mMITOL-knockout C2C12 cells, CRISPR-Cas9 vectors were constructed. Single-guide RNAs (sgRNAs) targeting the mouse MITOL gene were designed using the online tool CRISPOR (http://crispor.org). The oligonucleotide pair corresponding to the mMITOL guide RNA (gRNA sequence, 5′-[…]-3′) was annealed and ligated into the PX459 vector (48139, Addgene). C2C12 cells were transfected using Lipofectamine 3000 (Thermo Fisher Scientific), and knockout clones were selected by serial dilution.
To assess mitochondrial DNA (mtDNA) content, the mtDNA/nuclear DNA (nDNA) ratio was determined by extracting DNA from C2C12 cells using the NucleoSpin Tissue Kit (Takara Bio), followed by real-time quantitative PCR analysis with specific primer sets for mtDNA (16S rRNA or ND1) and nDNA (Hexokinase 2; HK2) (Supplementary Table 2). Real-time quantitative PCR was performed using TB Green Premix Ex Taq II (Takara Bio) and a Thermal Cycler Dice Real-Time System (Takara Bio). The analysis of mtDNA/nDNA ratios was conducted using the ΔΔCt method as previously described.

[6] = Water solubility, roughly examined; format: physicochemical; details: roughly examined
Procedure: Finally, we compared the water solubility of the three berberrubine forms. The solubility of three compounds, the reddish-black solid (quinoid-type berberrubine), the reddish-brown solid (berberrubine acetic acid salt), and the yellow solid (berberrubine acetic acid adduct), in water was roughly examined. […] On the other hand, the reddish-brown solid dissolved in about 30 mg in 1 mL of water.

O=C(O)c1cc(/N=N/c2ccc(S(=O)(=O)Nc3ccccn3)cc2)ccc1O [sulfasalazine, reference compound]
Papp at 4 h [1]: 0.084 ×10⁻⁶ cm/s

COc1ccc2cc3[n+](cc2c1O)CCc1cc2c(cc1-3)OCO2 [berberrubine chloride]
hepatic toxicity in rodents [2]: hepatic toxicity
renal toxicity in rodents [2]: renal toxicity

Cc1cc(=O)n(-c2ccccc2)n1C [antipyrine, reference compound]
Papp at 4 h [1]: 24 ×10⁻⁶ cm/s

COc1ccc2cc3[n+](cc2c1OC)CCc1cc2c(cc1-3)OCO2 [berberine, reference compound]
levels of Tom20, Mfn2, HSP60 and ATP5a proteins ([3]; C2C12, 5 μM or 10 μM): not observed
MITOL expression (western blot) ([3]; C2C12, 10 μM, berberrubine used as quinoid-type form): did not increase
mRNA levels of MITOL and Tom20 [4]: not observed
mitochondrial abundance (mtDNA 16S rRNA or ND1 / nuclear HK2) [5]: did not induce MITOL expression or increase mitochondrial content

COc1ccc2cc3n(cc-2c1=O)CCc1cc2c(cc1-3)OCO2 [berberrubine acetic acid salt]
solubility [6]: ≥ 30 mg/mL

COCCc1ccc(OCC(O)CNC(C)C)cc1 (stereo not shown) [metoprolol, reference compound]
Papp at 4 h [1]: 3 ×10⁻⁶ cm/s
